Experiments:
Format in all cases: cell-based
C/EBPα = assay: Western blotting of C/EBPα protein expression in differentiating 3T3-L1 cells; conditions: MDI-differentiated 3T3-L1 cells; for C/EBPα expression level: 40 μM, FIG. 5 comparison
Protocol: (§1) In Experimental Example 4, it was confirmed by Western blotting that gingerenone A affects important transcriptional factors, C/EBPα and PPARγ, and FAS protein expressed by a transcriptional factor thereof, expressed upon fat cell differentiation (B. L. Upham et al., Carcinogenesis. 18:37-42, 1997).
(§2) Post-confluent 3T3-L1 cells were cultured in DMEM supplemented with MDI, 10% FBS and 10 ml/L of antibiotic-antimycotic agent. In this media, we additionally treated with or without gingerenone A (10, 20 and 40 μM) for 2 days. For the next 2 to 4 days, the cells were further cultured. Here, the culture media was prepared by adding gingerenone A at concentrations of 10, 20 and 40 μM to DMEM media comprising insulin, 10% FBS and 1% antibiotic-antimycotic agent. For the next 4 to 6 days, the cells were further cultured in media comprising 10% FBS, 1% antibiotic-antimycotic agent and gingerenone A. Here, gingerenone A was added at concentrations of 10, 20 and 40 μM to the DMEM media. To extract protein from the cultured cells, after washing two times with cold PBS (phosphate buffered saline), the cells were lysed with a protein extraction solution. The protein extraction solution was RIPA buffer (50 mM, Tris pH 8.0, 150 mM NaCl, 1% NP-40, 5 mM EDTA and 1 mM PMSF) comprising 0.5% protease inhibitor (SIGMA-ALDRICH) and 0.5% phosphatase inhibitor (250 mM sodium fluoride, 5 mM sodium orthovanadate, 50 mM sodium pyrophosphate and 50 mM glycerophosphate). The cell lysates were centrifuged at 4° C. for 20 minutes at a rate of 12000 rpm. Supernatant formed by centrifugation was transferred to new 1.5 mL Eppendorf tubes. The protein content of the supernatants was determined using a DC assay kit (Bio-Rad Corp., Richmond, Calif., USA). The DC assay kit uses BSA (bovine serum albumin) as a standard solution. After mixing 20 to 50 μg of the protein with a sample buffer comprising bromophenol blue and denaturing the protein at 100° C. for 5 minutes, the denatured proteins were separated on a 12% SDS-polyacrylamide gel. […]

PPARγ = assay: Western blotting of PPARγ protein expression in differentiating 3T3-L1 cells; conditions: MDI-differentiated 3T3-L1 cells
Protocol: as §1
Post-confluent 3T3-L1 cells were cultured in DMEM supplemented with MDI, 10% FBS and 10 ml/L of antibiotic-antimycotic agent. In this media, we additionally treated with or without gingerenone A (10, 20 and 40 μM) for 2 days. For the next 2 to 4 days, the cells were further cultured. Here, the culture media was prepared by adding gingerenone A at concentrations of 10, 20 and 40 μM to DMEM media comprising insulin, 10% FBS and 1% antibiotic-antimycotic agent. For the next 4 to 6 days, the cells were further cultured in media comprising 10% FBS, 1% antibiotic-antimycotic agent and gingerenone A. Here, gingerenone A was added at concentrations of 10, 20 and 40 μM to the DMEM media. To extract protein from the cultured cells, after washing two times with cold PBS (phosphate buffered saline), the cells were lysed with a protein extraction solution. […] The protein content of the supernatants was determined using a DC assay kit (Bio-Rad Corp., Richmond, Calif., USA). […]

3T3-L1 cells [1] = assay: MTT analysis of viability of 3T3-L1 cells
Protocol: In Experimental Example 2, in order to measure the toxicity of 3T3-L1 cells in the presence of varying concentrations of gingerenone A, MTT3-(4,5-Dimethylthiazol-2-yl)-2,5diphenyltetrazolium bromide) analysis was conducted.
First, after plating 3T3-L1 cells into 96 well plates, the cells were cultured until the 3T3-L1 cells became confluent. Thereafter, the 3T3-L1 cells were treated with gingerenone A at concentrations of 10, 20 and 40 μM. After culturing for 24 and 48 hours, MTT was added to the cultured cells to a concentration of 0.5 mg/ml. The treated cells were cultured for 4 hours at 37° C. in a 5% CO2 incubator. Thereafter, the media was removed and 200 μl of DMSO (dimethylsulfoxide) was added to measure absorbance at a wavelength of 570 nm using an absorbance reader (Versa Max, Molecular Device, California, USA). Cell viability was determined as a percentage with respect to a control treated with only MDI (0.5 mM of isobutyl-methylxanthine, 1 μM of dexamethasone and 10 μg/ml of insulin).

3T3-L1 cells [2] = assay: Oil red O staining of fat accumulation in MDI-differentiated 3T3-L1 cells; conditions: 10, 20 and 40 μM, 6 days, dependent on concentration
Protocol: In Experimental Example 3, to analyze the suppressive effects of gingerenone A on fat accumulation, oil red 0 staining was performed after inducing differentiation of the pre-adipocytes (K. Tobe et al., FEBS Lett, 215(2):345-9, 1987).
The 3T3-L1 cells (ATCC, Gaithersburg, Md.), representing pre-adipocytes, were plated into 24-well plates. The plated 3T3-L1 cell line was cultured in DMEM (Dulbecco-modified Eagle medium, WELGENE) with 10% FBS (fetal bovine serum) and 10 ml/L of antibiotic-antimycotic agent at 37° C. in a 5% CO2 incubator (MCO-15AC, SANYO E&E, Europe) until the cells reached 100% confluence.
When the 3T3-L1 cells reached 100% confluence, the cells were further cultured for 2 days in DMEM medium, in which MDI was added, with 10 ml/L of antibiotic-antimycotic agent and 10% fetal bovine serum (FBS). The media was replaced with DMEM containing 10 ml/L of insulin, 10% FBS and 10 ml/L of antibiotic-antimycotic agent for another 2 days. Thereafter, the media was changed to DMEM medium only comprising 10 ml/L of antibiotic-antimycotic agent and 10% FBS. […]
When 3T3-L1 cells were differentiated in the presence of MDI, gingerenone A was added at concentrations of 10, 20 and 40 μM to the cell culture media every third day from the day of MDI addition. […] The concentration was measured at a wavelength of 515 nm using an absorbance reader.

[3] = test system: FAS (fatty acid synthase); assay: Western blotting of FAS protein expression in differentiating 3T3-L1 cells; conditions: MDI-differentiated 3T3-L1 cells; for FAS expression level: 40 μM, FIG. 5 comparison
Protocol: as §1, §2

Structure (SMILES) | C/EBPα expression level (C/EBPα) | C/EBPα protein expression level (C/EBPα; 10, 20 and 40 μM, FIG. 4) | PPARγ expression level (PPARγ; 40 μM, FIG. 5 comparison) | PPARγ protein expression level (PPARγ; 10, 20 and 40 μM, FIG. 4) | cytotoxicity (viability of 3T3-L1 cells) (3T3-L1 cells [1]; 40 μM, 24 and 48 hours after treatment) | cytotoxicity (MTT analysis) (3T3-L1 cells [1]; 3T3-L1 pre-adipocytes treated with 10, 20 and 40 μM) | cellular fat content (oil red O staining) (3T3-L1 cells [2]) | FAS expression level [3] | FAS protein expression level ([3]; 10, 20 and 40 μM, FIG. 4)
COc1cc(CC/C=C/C(=O)CCc2ccc(O)c(OC)c2)ccc1O [gingerenone A] | considerably reduced | reduced | considerably reduced | reduced | not observed | not observed | decreased | considerably reduced | reduced
CCCCC[C@H](O)CC(=O)CCc1ccc(O)c(OC)c1 [gingerol, reference compound] | slightly reduced |  |  |  |  |  |  | slightly reduced | 

From patent publication US20160074338A1, “FOOD COMPOSITION FOR PREVENTING OBESITY, PHARMACEUTICAL COMPOSITION FOR TREATING OBESITY, AND ANIMAL MEDICINE FOR TREATING OBESITY, CONTAINING GINGERNONE A” (SNU R&DB Foundation, priority 2011, published 2016)
